Assay [1] has as its system Leishmania major (Lm). Briefly: Phosphatidylserine exposure (AnnexinA5 binding) by flow cytometry, L. major. The class given is cell-based. The conditions noted are these: mean ± SD; for AnnexinA5-binding parasites: Lm log-phase promastigotes, 72 h, untreated 14.7 ± 11.1%. Here is the method:
(§1) L. major (Lm, MHOM_IL_81_FEBNI), L. aethiopica (Lae, MHOM/ET/72/L100 Z14), and the transgenic Lm dsRed (construct pSSUint-DsRed was a kind gift from Dr. Toni Aebischer, Robert Koch Institute, Berlin, Germany) and Lae dsRed promastigotes were cultured at 27°C in biphasic Novy-Nicolle-McNeal blood agar medium as described ([60]). Of note, all viable promastigotes express the transgenic dsRed protein. Upon transformation into the amastigote life stage, a 1 log-scale higher dsRed fluorescence is present, due to the high-level expression in the amastigote life stage ([31]). Logarithmic-phase or stationary-phase promastigotes were obtained after 2 (log-phase) or 7 (stat-phase) days of culture, respectively. Lm and Lae axenic amastigotes were generated by incubating log-phase promastigotes in pH 5.5 at 33°C and isolated using a discontinuous Histopaque® 1119 (Sigma Aldrich, Germany) density gradient as described ([61]).
(§2) To assess apoptosis, Lm and Lae promastigotes, which resided in a logarithmic growth phase, were treated with 30 and 60 ng/ml hrLL37 (PeptaNova GmbH, Sandhausen, Germany) for 72 h. […] Subsequently, DNA fragmentation was assessed by flow cytometry or immunofluorescence imaging using an in situ cell-death detection kit, based on terminal deoxynucleotidyl transferase dUTP nick end labeling (TUNEL), as described ([30]). Exposure of phosphatidylserine (PS) was assessed by AnnexinA5 binding using flow cytometry.
(§3) • FACS analysis of Leishmania parasites was performed as described Wenzel et al. ([61]). Apoptosis, among parasites, was assessed by staining with AnnexinA5-Alexa Fluor 647 using a Ca^2+ rich buffer. • For phenotyping hMDM by flow cytometry, hMDM were washed in FACS-Buffer (PBS supplemented with 1% FCS, 1% human serum and 1% BSA) and incubated with anti-CD14-FITC (1:100, IgG2b), anti-CD163-PE (1:50, IgG1, GHI/61), or anti-MHC II-PerCP (1:100, IgG2a, L243) for 30 min on ice in the dark. […] Upon analyzing, at least 10,000 events (human cells) or 20,000 (parasites) were recorded using a BD LSR II flow cytometer (BD Bioscience, Heidelberg, Germany). […]
Background: In flow cytometry, cells or beads pass a laser one at a time.

Assay [2] deals with L. aethiopica (Lae). Nature of the assay: Phosphatidylserine exposure (AnnexinA5 binding) by flow cytometry, L. aethiopica. It counts as cell-based, Leishmania aethiopica. The conditions noted are these: mean ± SD; for AnnexinA5-binding parasites: Lae log-phase promastigotes, 72 h, untreated 8.0 ± 4.5%. On the procedure:
as §1, §2, §3

A further assay relates to Leishmania promastigotes. Nature of the assay: Parasite morphology by microscopy after hrLL37 treatment. The conditions noted are these: microscopy (Figure 2C), as described for apoptotic parasites. The class given is cell-based. On the procedure: To assess apoptosis, Lm and Lae promastigotes, which resided in a logarithmic growth phase, were treated with 30 and 60 ng/ml hrLL37 (PeptaNova GmbH, Sandhausen, Germany) for 72 h. Leishmania axenic amastigotes were treated with 10 and 100 ng/ml hrLL37 or 25 μM staurosporine for 24 h. Subsequently, DNA fragmentation was assessed by flow cytometry or immunofluorescence imaging using an in situ cell-death detection kit, based on terminal deoxynucleotidyl transferase dUTP nick end labeling (TUNEL), as described ([30]). Exposure of phosphatidylserine (PS) was assessed by AnnexinA5 binding using flow cytometry.

Assay [3] concerns Leishmania major (Lm). Briefly: DNA fragmentation (TUNEL) by flow cytometry, L. major. It counts as cell-based. The conditions noted are these: mean ± SD. On the procedure:
as §1, §2, §3

Assay [4] has as its system L. aethiopica (Lae). Nature of the assay: DNA fragmentation (TUNEL) by flow cytometry, L. aethiopica. It counts as cell-based, Leishmania aethiopica. On the procedure: as §1, §2, §3
In assay [5] the test system is L. major dsRed in hMDM1. Briefly: Parasite survival (dsRed MFI) in infected hMDM1 by flow cytometry. It counts as cell-based, Leishmania major. The conditions noted are these: hMDM1 pretreated 24 h with 100 nM, infected with Lm dsRed MOI 10, flow cytometry, mean ± SD; control 1.00 ± 0.46. Here is the method:
(§4) The cells were co-incubated with stationary phase Lm or Lae promastigotes or axenic amastigotes at a MOI ratio of 1:10 in RPMI 1640 supplemented with 10% heat inactivated fetal calf serum, 50 μM β-mercaptoethanol (all from Sigma Aldrich), 2 mM L-glutamine, 100 U/ml penicillin and 100 μg/ml streptomycin, 10 mM HEPES (all from Biochrom) for 3 h at 37°C in a humidified atmosphere in a CO2 incubator. Extracellular parasites were removed by centrifugation and washing the cells. During infection experiments, cathelicidin expression was induced by incubation of hMDM with 100 nM calcitriol or calcipotriol for 24 h. For transgenic LmdsRed flow cytometry was used to analyze infection rates. […] The LmdsRed promastigotes increase their fluorescence intensity when transforming into amastigotes, which enables the quantification of the parasite propagation by measuring the dsRed mean fluorescence intensity using FACS ([62], [63]).
(§5) • FACS analysis of Leishmania parasites was performed as described Wenzel et al. ([61]). […] The cells were washed in FACS-Buffer and analyzed by flow cytometry. • To assess parasite survival, Leishmania (dsRed^+) infected hMDM were washed in FACS-buffer and infection rate (% of dsRed^+ hMDM) and the parasite load (mean fluorescent intensity) were assessed by flow cytometry. […] Data were analyzed by BD FACS Diva or FlowJo software (Treestar).

The test system of the next assay is CAMP. Briefly: CAMP gene expression in hMDM1 by qRT-PCR after vitamin D derivatives. The class given is cell-based, human. The conditions noted are these: hMDM1, 100 nM, after 6 days (late), qRT-PCR normalized to GAPDH and to untreated control = 1, mean ± SD, n = 1-5. On the procedure: Human peripheral mononuclear cells (PBMCs) were isolated from buffy coats (DRK-Blutspendedienst Hessen GmbH) by passage over a Leukocyte Separation Medium gradient as described previously ([30]). Monocytes, obtained by plastic adherence or CD14 selection were incubated either with 10 ng/ml rhGM-CSF (Leukine® Sanofi-Aventis, Bridgewater, US) or 30 ng/ml rhM-CSF (R&D Systems, Abingdon, UK) for a period of 5 to 7 d at 37°C, 5% CO2 to generate hMDM1 or hMDM2, respectively. Cells were generated in 6 w plates or in 25 cm^2 culture flasks and were detached by cooling cells down on ice, following detachment with a cell scraper. […]
as §4, with “incubator.” for “incubator. Extracellular parasites were removed by centrifugation and washing the cells. During infection experiments, cathelicidin expression was induced by incubation of hMDM with 100 nM calcitriol or calcipotriol for 24 h. For transgenic LmdsRed flow cytometry was used to analyze infection rates.”, “[63]). […]” for “[63]).”

The subject of the next assay is cathelicidin. Briefly: Cathelicidin protein expression in hMDM1 by western blot densitometry. The class given is cell-based, human. The conditions noted are these: hMDM1, 100 nM, western blot densitometry normalized to ß-actin and untreated control = 1, mean ± SD, n = 5-7. Here is the method: Human peripheral mononuclear cells (PBMCs) were isolated from buffy coats (DRK-Blutspendedienst Hessen GmbH) by passage over a Leukocyte Separation Medium gradient as described previously ([30]). Monocytes, obtained by plastic adherence or CD14 selection were incubated either with 10 ng/ml rhGM-CSF (Leukine® Sanofi-Aventis, Bridgewater, US) or 30 ng/ml rhM-CSF (R&D Systems, Abingdon, UK) for a period of 5 to 7 d at 37°C, 5% CO2 to generate hMDM1 or hMDM2, respectively. Cells were generated in 6 w plates or in 25 cm^2 culture flasks and were detached by cooling cells down on ice, following detachment with a cell scraper. Experimental data, conducted with monocytes obtained from human donors, are depicted as dot plots, in which each dot presents data from a single donor.
as §4, with “h.” for “h. For transgenic LmdsRed flow cytometry was used to analyze infection rates.”
A total number of 0.5 × 10^6 hMDM were lysed in Lämmli-Buffer (A. bidest supplemented with 0.7 M Glycerol, 1.7% SDS, 0.1 M DTT and 30 μM Bromphenol blue), denaturated at 95°C for 10 min and loaded onto a 15% SDS-polyacrylamide gel. […] The membrane was washed once more and the protein bands were detected using an ECL substrate (GE Healthcare, Buckinghamshire, United Kingdom). Using ImageJ, densitometry analysis was performed to quantify the intensities of the protein bands.
For orientation: A western blot detects proteins with antibodies after separation by electrophoresis.

Assay [6] relates to L. major dsRed in hMDM1. Briefly: Infection rate (% dsRed+ hMDM1) by flow cytometry. It counts as cell-based, Leishmania major. The conditions noted are these: hMDM1 pretreated 24 h with 100 nM, infected with Lm dsRed MOI 10, flow cytometry. Here is the method:
as §4, §5

[7] abbreviates: higher of two hrLL37 concentrations (60 ng/ml per methods).
Setting [8] is: lower of two hrLL37 concentrations (30 ng/ml per methods).

Take “hrLL37: human recombinant LL37 (PeptaNova GmbH), the hCAP18-derived amphipathic α-helical antimicrobial peptide”: the AnnexinA5 binding with Leishmania major (Lm) [1] (Lm axenic amastigotes, rhLL37 (10 and 100 ng/ml in methods, concentration of this value not stated), 24 h, minor but significant increase, untreated 3.3 ± 2.3%) was 8.3 ± 3.0%; in the assay on L. aethiopica (Lae) [2] (Lae axenic amastigotes, hrLL37 (10 and 100 ng/ml in methods, concentration of this value not stated), 24 h, untreated 18.7 ± 6.1%), 71.3 ± 12.6%. In addition, the AnnexinA5-binding parasites in the assay with Leishmania major (Lm) [1] (setting [7]) amounted to 74.8 ± 23.2%; with Leishmania major (Lm) [1] (setting [8]), 51.5 ± 20.5%; in the assay on L. aethiopica (Lae) [2] (setting [7]), 31.3 ± 26%; with L. aethiopica (Lae) [2] (setting [8]), 27.1 ± 14.3%. Moreover, in the assay with Leishmania promastigotes, the “Morphology of treated parasites” value is given as “round-shaped morphology”. Further, the TUNEL positivity was found to be 12.1 ± 2.1% with Leishmania major (Lm) [3] (Lm axenic amastigotes, rhLL37 (10 and 100 ng/ml in methods, concentration of this value not stated), 24 h, not significantly increased, untreated 12.0 ± 6.6%); 22.9 ± 3.1% in the assay with Leishmania major (Lm) [3] (Lm log-phase promastigotes, higher of two increasing hrLL37 concentrations (60 ng/ml per methods), 72 h, untreated 6.24 ± 1.9%); 20.2 ± 0.7% with Leishmania major (Lm) [3] (Lm log-phase promastigotes, lower of two increasing hrLL37 concentrations (30 ng/ml per methods), 72 h, untreated 6.24 ± 1.9%); 87.0 ± 6.1% with L. aethiopica (Lae) [4] (Lae axenic amastigotes, hrLL37 (10 and 100 ng/ml in methods, concentration of this value not stated), 24 h, mean ± SD, untreated 32.3 ± 13.3%); 21.1 ± 2.3% with L. aethiopica (Lae) [4] (Lae log-phase promastigotes, higher of two increasing hrLL37 concentrations (60 ng/ml per methods), 72 h, mean ± SD of at least 3 experiments, untreated 13.3 ± 1.2%); 15.5 ± 8.3% in the assay with L. aethiopica (Lae) [4] (Lae log-phase promastigotes, lower of two increasing hrLL37 concentrations (30 ng/ml per methods), 72 h, mean ± SD of at least 3 experiments, untreated 13.3 ± 1.2%).

Turning to `C=C1/C(=C\C=C2/CCC[C@]3(C)[C@@H]([C@H](C)CCCC(C)(C)O)CC[C@@H]23)C[C@@H](O)C[C@@H]1O` [CCT, 1α, 25-dihydroxyvitamin D3], the “L. major parasite survival (mean fluorescent intensity of dsRed, relative to control)” value in the assay on L. major dsRed in hMDM1 [5] turned out to be 0.60 ± 0.25. For the same molecule, in the assay with CAMP, the “CAMP gene expression, fold increase” value worked out at 587 ± 173 fold. Besides, the “cathelicidin protein expression, fold increase” value in the assay on cathelicidin (early (24 h)) is on record as 25.5 ± 22.2 fold; in the assay with cathelicidin (late (6 d)), 152.5 ± 149.6 fold. Also, the “percentage of hMDM1 infected cells (infection rate)” value in the assay on L. major dsRed in hMDM1 [6] was “did not change significantly”.

For the molecule `C=C1/C(=C\C=C2/CCC[C@]3(C)[C@@H]([C@H](C)/C=C/[C@@H](O)C4CC4)CC[C@@H]23)C[C@@H](O)C[C@@H]1O` [CPT, calcipotriol], the “L. major parasite survival (mean fluorescent intensity of dsRed, relative to control)” value in the assay on L. major dsRed in hMDM1 [5] was found to be 0.74 ± 0.23. In the assay on CAMP, the “CAMP gene expression, fold increase” value turned out to be 282 fold. Moreover, in the assay with cathelicidin (late (6 d)), the “cathelicidin protein expression, fold increase” value turned out to be 101.9 ± 125.4 fold. The “percentage of hMDM1 infected cells (infection rate)” value with L. major dsRed in hMDM1 [6] was “did not change significantly”.

Source of the values: paper PMC6883804, “Cathelicidin Contributes to the Restriction of Leishmania in Human Host Macrophages” (Frontiers in Immunology, 2019).
